# From patent US20090035306A1 (KALYPSYS, INC., priority 2006, published 2009)
# Molecular target: T1, human TGR5 (Homo sapiens, UniProt Q8TDU6)
# T1 construct: expressed in transfected cells
# T1 sequence (Q8TDU6 1-330): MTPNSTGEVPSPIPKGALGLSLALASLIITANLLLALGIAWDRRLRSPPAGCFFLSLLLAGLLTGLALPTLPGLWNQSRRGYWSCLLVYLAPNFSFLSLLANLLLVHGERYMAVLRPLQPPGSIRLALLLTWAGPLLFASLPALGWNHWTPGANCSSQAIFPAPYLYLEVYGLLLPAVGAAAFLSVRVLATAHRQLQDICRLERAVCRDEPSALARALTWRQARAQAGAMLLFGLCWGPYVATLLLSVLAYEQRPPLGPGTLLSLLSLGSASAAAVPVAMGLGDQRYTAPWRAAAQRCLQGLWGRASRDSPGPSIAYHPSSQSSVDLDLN
# Experiment: cAMP production assay in HEK293 cells stably expressing TGR5 (LANCE TR-FRET)
# Format: cell-based
# Settings: 30 minutes stimulation, read-out: cAMP Production in 293-TGR5 Cells EC50
# Outline: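 HEK293 cells stably transfected with human TGR5, incubated overnight in DMEM with 0.1% FBS, then given IBMX (1 mM final) and stimulated with compounds for 30 minutes. cAMP measured by LANCE TR-FRET after 1-7 h detection at room temperature. EC50 values reported as ≦10 μM (+) or >10 μM (−).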
row,Structure (SMILES),EC50
1,"COc1cc(-c2nc3ccccc3c(=O)n2NCc2ccc(Cl)cc2)ccc1C [Example 66, 3-(4-chlorobenzylamino)-2-(3-methoxy-4-methylphenyl)quinazolin-4(3H)-one]",≤ 10 µM
2,"O=c1c2ccccc2nc(-c2ccccc2F)n1NCc1cccc(Cl)c1 [Example 18, 3-(3-chlorobenzylamino)-2-(2-fluorophenyl)quinazolin-4(3H)-one]",≤ 10 µM
